Laboratory results: patent publication US20030194378A1, “Novel aerosol formulation containing a polar fluorinated molecule” (priority 2000, published 2003)
Where a name gives a salt, the structure may show the parent alone. Read-outs that look alike come from different tables or passages of the source.

Legend:
[1] = Miscibility or solubility of fluorinated molecules in propellants; conditions: for Concentration (C, in brackets) at which the miscibility or solubility test was done, HFA-134a / Concentration (C, in brackets) at which the miscibility or solubility test was done, HFA-227: solutions below this are monophasic, not an upper limit; for Miscibility or solubility, HFA-134a: in propellant HFA-134a, at the concentration in brackets; for Miscibility or solubility, HFA-227: in propellant HFA-227, at the concentration in brackets
[2] = Solubility of drug compounds in 4HPFOH (optical, UV-Vis); format: physicochemical
Protocol: Although most drug compounds are insoluble in the fluorinated systems, in some instances it is possible to solubilise the drug.
Drug suspensions were prepared in sealed glass vials by weight. The suspensions were then allowed to rest over a couple of day to reach equilibrium. They were firstly assessed optically, and in the case of a possible solubility by UV-vis spectroscopy. The solutions were then filtered with 0.2 μm PTFE filters and studied by UV-Vis spectroscopy between 280 nm and 350 nm. A range of suspensions were prepared, to be able to reach saturation levels. Calibration curves were then drawn by plotting the absorbance as a function of concentration. The inflexion point at which the slope of the calibration plot changed was taken as the solubility limit. The experiment was carried out at least 3 times for each drug.

[3] = Solubility of selected excipients in 4HPFOH; conditions: for Concentration % w/w (at which solubility in 4HPFOH was assessed): excipient in 4HPFOH; for Solubility or miscibility in 4HPFOH: excipient in 4HPFOH at the concentration of the same line, sonicated, heated, cooled
Protocol: The second test carried out was to evaluate the solubility (or miscibility in the case of liquid samples) of some excipients in 4HPFOH.
The excipients were weighed in glass vials with a screw-on plastic cap. 4HPFOH was added at the required concentration, and the vial sealed with Teflon tape and the screw-on cap. The sample was sonicated and heated to quicken the solubilisation of the excipient. The vial was then allowed to cool down.

Concentration (C, in brackets) at which the miscibility or solubility test was done, HFA-134a [1]	Concentration (C, in brackets) at which the miscibility or solubility test was done, HFA-227 [1]	Miscibility or solubility, HFA-134a [1]	Miscibility or solubility, HFA-227 [1]	SMILES	further results
(C <4.84% w/w)	< 3.71 % w/w	Yes	Yes	OCC(O)CC(F)(F)C(F)(F)C(F)(F)C(F)(F)C(F)(F)C(F)(F)F (centres unmarked) [1H,1H,2H,3H,3H Perfluoro-1,2-nonandiol]	
(C <43.49% w/w)	(C <35.36% w/w)	Yes	Yes	FC(OC(F)(F)C(F)(OC(F)(F)C(F)(OC(F)(F)C(F)(OC(F)(F)C(F)(F)C(F)(F)F)C(F)(F)F)C(F)(F)F)C(F)(F)F)C(F)(F)F (centres unmarked) [2H Perfluoro-5,8,11-trimethyl-3,6,9,12-tetrafluoropropylether]	
(C <10.37% w/w)	< 8.90 % w/w	Yes	Yes	COC(=O)C(F)(OC(F)(F)C(F)(OC(F)(F)C(F)(OC(F)(F)C(F)(OC(F)(F)C(F)(F)C(F)(F)F)C(F)(F)F)C(F)(F)F)C(F)(F)F)C(F)(F)F (centres unmarked) [Methyl perfluoro 2,5,9,11-Tetramethyl 3,6,9,12 Tetraoxapentadecanoate]	

More lines, now with the values behind:

SMILES	Concentration (C, in brackets) at which the miscibility or solubility test was done, HFA-134a [1]	Concentration (C, in brackets) at which the miscibility or solubility test was done, HFA-227 [1]	Miscibility or solubility, HFA-134a [1]	Miscibility or solubility, HFA-227 [1]	further results
OCCC(F)(F)C(F)(F)C(F)(F)C(F)(F)C(F)(F)C(F)(F)F [1H,1H,2H,2H Perfluorooctan-1-ol]	(C <7.30% w/w)	< 5.17 % w/w	Yes	Yes	
OCC(F)(F)C(F)(F)C(F)(F)C(F)(F)C(F)(F)C(F)(F)C(F)(F)C(F)(F)F [1H,1H, Perfluorononan-1-ol]	(C <4.55% w/w)	< 4.15 % w/w	Yes	Yes	
Cc1ccc(CCOCCNS(=O)(=O)CCCNCCc2ccc(O)c3nc(O)sc23)cc1 [3-[2-(4-hydroxy-2-oxo-3H-1,3-benzothiazol-7-yl)ethylamino]-N-[2-[2-(4-methylphenyl)ethoxy)ethyl]propansulphonamide]					Solubility in 4HPFOH [2]: less than 0.1 ppm(w/w); Solubility in 4HPFOH (in words) [2]: insoluble
CCCC1O[C@@H]2C[C@H]3[C@@H]4CCC5=CC(=O)C=C[C@]5(C)[C@H]4[C@@H](O)C[C@]3(C)[C@]2(C(=O)CO)O1 (some centres unmarked) [Budesonide]					Solubility in 4HPFOH (in words) [2]: soluble; Solubility limit in 4HPFOH [2]: 0.219-0.246 % w/w
C[C@H](CCC(=O)O)[C@H]1CC[C@H]2[C@@H]3CC[C@@H]4C[C@H](O)CC[C@]4(C)[C@H]3C[C@H](O)[C@]12C [Deoxycholic acid]					Concentration % w/w (at which solubility in 4HPFOH was assessed) [3]: 0.90 % w/w; Solubility or miscibility in 4HPFOH [3]: Yes
CCCCC(CC)COC(=O)CC(C(=O)OCC(CC)CCCC)S(=O)(=O)[O-].[Na+] (centres unmarked) [Dioctyl-sulfosuccinate sodium salt]					Concentration % w/w (at which solubility in 4HPFOH was assessed) [3]: 0.096 % w/w; Solubility or miscibility in 4HPFOH [3]: Yes
CCCCCCCCCCCC[N+](C)(C)C.[Br-] [Dodecyltrimethyl Ammonium Bromide]					Concentration % w/w (at which solubility in 4HPFOH was assessed) [3]: 1.00 % w/w; Solubility or miscibility in 4HPFOH [3]: Yes
CCOC(=O)C(F)(F)C(F)(F)C(F)(F)C(F)(F)C(F)(F)C(F)(F)C(F)(F)C(F)(F)C(F)(F)C(F)F [Ethyl 11H-Perfluoroundecanoate]	(C <4.93% w/w)	< 4.43 % w/w	Yes	Yes	
CCOC(=O)C(F)(F)C(F)(F)C(F)(F)C(F)(F)C(F)(F)C(F)(F)C(F)(F)C(F)(F)C(F)(F)C(F)(F)C(F)(F)F [Ethyl Perfluoro n-Dodecanoate]	(C <9.24% w/w)	(C <41.15% w/w)	Yes	Yes	
COc1ccc(CC(C)NCC(O)c2ccc(O)c(NC=O)c2)cc1 (centres unmarked) [Formoterol Fumarate Dihydrate]					Solubility in 4HPFOH (in words) ([2]; in 4HPFOH, equilibrated a couple of days): insoluble
COC(=O)C(F)(F)C(F)(F)C(F)(F)C(F)(F)C(F)(F)C(F)(F)C(F)(F)C(F)(F)C(F)(F)F [Methyl Perfluorodecanoate]	(C <42.63% w/w)	(C <39.40% w/w)	Yes	Yes	
CCCCCCCCO[C@@H]1O[C@H](CO)[C@@H](O)[C@H](O)[C@H]1O [N Octyl beta D Glucopyranoside]					Concentration % w/w (at which solubility in 4HPFOH was assessed) [3]: 0.11 % w/w; Solubility or miscibility in 4HPFOH [3]: Yes
CCCCCCCCC[N+](C)(C)C.[Br-] [Nonyltrimethyl Ammonium Bromide]					Concentration % w/w (at which solubility in 4HPFOH was assessed) [3]: 0.96 % w/w; Solubility or miscibility in 4HPFOH [3]: Yes
O=C(OC(=O)C(F)(F)C(F)(F)C(F)(F)C(F)(F)C(F)(F)C(F)(F)F)C(F)(F)C(F)(F)C(F)(F)C(F)(F)C(F)(F)C(F)(F)F [Perfluoroheptanoic anhydride]	(C <9.89% w/w)	< 9.13 % w/w	Yes	Yes	
CC(C)(C)NCC(O)c1cc(O)cc(O)c1 (centres unmarked) [Terbutaline Sulphate]					Solubility in 4HPFOH [2]: less than 0.1 ppm(w/w); Solubility in 4HPFOH (in words) [2]: insoluble
